This note sets out measurements from patent publication US20090214654A1, “TREATMENT OF ANEURYSM WITH APPLICATION OF CONNECTIVE TISSUE STABILIZATION AGENT IN COMBINATION WITH A DELIVERY VEHICLE” (priority 2008, published 2009).

Where two headings read alike, the source gives them in different places.

Series [1] deals with porcine carotid arteries. The series can be described thus: In vitro elastase digestion of treated carotid arteries. Particulars: treated 20 minutes; 0.6% (w/v) Glut, 0.15% (w/v) PGG, alone or as cocktail; elastase 24 hrs, 37°C. The method, then:
Tissue resistance to elastase degradation after treatment with various reagents is studied. Specifically, porcine carotid arteries were treated with saline (control, for 20 minutes), Glutaraldehyde (Glut) (for 20 minutes), PGG (for 20 minutes), or a combination of the two (Glut+PGG for 20 minutes, or Glut for 10 minutes followed by a separate incubation with PGG for 10 minutes). Concentrations of the reagents used were 0.6% (w/v) for Glut, 0.15% (w/v) for PGG and 9 g/L for physiological saline.
The treated tissue was then exposed to an in vitro elastase digestion assay to subject the treated tissue to digestion for 24 hrs. All experiments were conducted at 37° C. Because the values shown are percentage of digestion, the lower the value, the better the reagent used preformed in resisting elastase degradation. […] It should be noted that the digestion model used in this experiment is a very accelerated and aggressive digestion model.

Series [2] relates to porcine aortic wall. The series can be described thus: Collagenase digestion of treated aortic wall. Particulars: type I collagenase 150 U/mL, 37°C, 24 hours. The method, then: Tissue resistance to collagenase degradation after treatment with various reagents is discussed. Specifically, samples of porcine aortic wall were either left untreated (fresh) or treated with Glut alone or Glut followed by tannic acid (TA). Glut treatment was performed with 0.6% (w/v) Glut for 1 day, and then 0.2% (w/v) Glut for 7 days at room temperature; Glut/TA treatment was performed with 0.6% (w/v) Glut for 1 day, and then 0.2% (w/v) Glut for 7 days at room temperature followed by 0.15% (w/v) TA for 4 days at 37° C. The treated samples were rinsed 3 times (1 hour each) in 100 mL water, and lyophilized to record dry weight. Samples with the amount of 15 to 25 mg dry weight were immersed in 1.2 mL of type I collagenase (150 U/mL) dissolved in 50 mM Tris buffer, 10 mM CaCl2, pH 7.4, and incubated at 37° C. with orbital shaking at 650 rpm for 24 hours. Following this exposure to collagenase, samples were centrifuged (10000 rpm, 10 minutes, 4° C.), individually rinsed three times in 1 mL water, lyophilized to obtain dry weight after collagenase, and the percent of digested tissue was calculated.

For series [3], the system named is abdominal aortic aneurysms in rats. In kind it is in vivo, rat. The settings on record: for external aortic diameter: PGG group. As for the experimental part:
Pelivascular application of calcium chloride (CaCl2) to the infrarenal abdominal aorta of rodents is an accepted rat aneurysm model. It involves exposure of the abdominal aorta through a midline incision, using gauze to apply CaCl2 solution directly onto the aorta for 15 minutes, followed by surgical closure. Using this aneurysm model, we evaluated the effect of a single PGG application on development of abdominal aortic aneurysms in rats. For this study, we exposed the abdominal aorta in adult rats (n=12), measured the aorta diameter using digital photography and applied a 0.03% PGG solution in saline for 15 minutes using soaked gauze. After rinsing in saline, we induced aortic injury with the 15-minute application of 0.5 mol/L CaCl2 solution. Control rats (n=12) were treated with saline for 15 minutes, rinsed and then treated with 0.5 mol/L CaCl2 solution for 15 minutes. After 28 days, we re-exposed the abdominal aorta under general anesthesia, measured the external diameter, then euthanized the rats and collected the aorta for analysis. […] Along with aortic dilatation, perivascular application of CaCl2 induced major changes in vascular elastin content and integrity as shown by analysis of desmosine, an amino acid which is specific to elastin, as well as histology, all shown in FIG. 12.

For series [4], the system named is aneurysmal aortas of rats. Nature of the series: CaCl2 abdominal aortic aneurysm progression model, PGG applied to aneurysmal aorta at day 28. Format: in vivo, rat. Particulars: PGG group, 11 of 11. The method, then: Using the same perivascular CaCl2 aortic injury model described earlier, the ability of PGG to halt the progression of growing aneurysms was evaluated. By applying PGG to healthy abdominal aorta immediately before the CaCl2-based aneurysm induction, the previously mentioned in vivo experiment essentially evaluated the effect of PGG on aneurysm formation. However, in order to create a more clinically relevant scenario, PGG was also applied to abdominal aortas of rats which were aneurysmal to investigate PGG's ability to hinder or halt aneurysm progression. In order to do this, rat aortas were treated with calcium chloride, the animals were closed, and AAA was allowed to develop for 28 days. At this time point, the aneurysmal aortas were exposed by a second surgery, and PGG was applied perivascularly using gauze. As a control, saline was applied by the same means to the remaining aneurysmal aortas. AAA progression was followed for another 28 days in both groups. A progressive diameter increase, reaching a mean 47.1±11% increase at 56 days, was measured in the control group (n=11) and the results were illustrated in FIG. 13.

The test system of series [5] is pure elastin strips obtained from porcine aorta. The series can be described thus: Tannic acid binding to pure aortic elastin (Folin-Denis method). The settings on record: incubation up to 24 hours. As for the experimental part: In order to determine kinetics of tannin binding to elastin, pure elastin strips obtained from porcine aorta were incubated with tannic acid (TA) for up to 24 hours. The concentration of TA in solution was assayed with the Folin-Denis method. […] All data points between 0-6 hrs are statistically different with p<0.05. The bottom diagram of FIG. 6 is a representative schematic diagram of interactions between TA and elastin. The hydrophobic domains (2, black segments) are areas in the elastin molecule that are susceptible to elastase cleavage. TA and PGG molecules (4, round structures), with an affinity for these hydrophobic areas, likely bind to these regions within elastin molecules, and establish multiple hydrogen bonds (5, dashed lines) between their hydroxyl moieties and regions of neighboring elastin molecules, resulting in improved elastin stabilization. Desmosine crosslinks (3, X) within the hydrophilic regions (1) of elastin molecules.

Series [6] relates to pure elastin obtained from porcine aorta. The series can be described thus: Elastase digestion of TA-treated pure aortic elastin (mass loss, histology). In kind it is biochemical. The method, then:
To investigate the potential of tannins as elastin stabilizing reagents, pure elastin obtained from porcine aorta was treated with tannic acid (TA) and the resistance of the treated porcine aorta to elastase was tested. Porcine aorta was chosen because large quantities of fresh tissue were easily obtainable. […] Purified elastin from porcine aorta was obtained using sodium hydroxide treatment followed by collagenase digestion. The smooth muscle cells, collagen and ground matrix are absent from purified aortic elastin. […] Elastase completely digested pure elastin strips, while addition of a 0.3% TA pretreatment step increased stability towards enzymatic digestion by almost 50%, as evaluated by mass loss shown in the graph at the left of FIG. 7 (p<0.05, n=6). Gravimetric data were further confirmed by histology and shown in FIG. 7A-D. Since histological analysis of elastase-digested elastin control was not possible at 48 hours due to complete (˜100%) degradation, we exposed pure elastin to elastase for only 1.5 hours, an interval which yields about 50% digestion and mass loss.

The test system of series [7] is fresh aorta. The series can be described thus: Resistance of treated fresh aorta to elastase digestion. The settings on record: 0.3% TA or 0.15% PGG (equimolar); accelerated digestion. The method, then:
Resistance to elastase digestion was tested using fresh, untreated aorta and aorta treated with 0.3% TA or 0.15% PGG (equimolar concentrations). […] The differences between digestive values in TA and PGG samples were not significant (p>0.05). This is an accelerated digestion study, where high concentrations of enzyme were used. Such high enzyme activities are not expected to occur in vivo.

For `O=CCCCC=O` [Glut, Glutaraldehyde], in series [1], the “resistance of tissue to elastase degradation (percentage digestion) vs saline” value is listed as “slightly improved”. Further, the “percentage of sample digested by collagenase (mass loss)” value in series [2] is on record as “over 20%”.

Consider `O=C(OC[C@H]1O[C@@H](OC(=O)c2cc(O)c(O)c(O)c2)[C@H](OC(=O)c2cc(O)c(O)c(O)c2)[C@@H](OC(=O)c2cc(O)c(O)c(O)c2)[C@@H]1OC(=O)c1cc(O)c(O)c(O)c1)c1cc(O)c(O)c(O)c1` [PGG, penta-galloylglucose], for which the “increase in aortic diameter after 28 days” value in series [3] (0.03% PGG in saline 15 minutes by soaked gauze before 0.5 mol/L CaCl2, day 28 vs day 0) is reported as 8±7%. Besides, the “loss of desmosine (elastin content) vs non-surgery control aorta” value in series [3] (28 days after injury) is listed as “less than 15%”. Further, the external aortic diameter in series [3] (28 days) is recorded as 1.676±0.097 mm; in series [3] (day 0), 1.564±0.064 mm. In addition, the “time for which in vivo binding of PGG to aortic tissue is relatively stable” value in series [3] (rat, in vivo) is recorded as no less than 28 days. Moreover, the “PGG content of explanted aorta” value in series [3] (rat, in vivo, 0 days) was 1.8±0.6 μg PGG/mg dry tissue; in series [3] (rat, in vivo, 28 days) it was 1.2±0.4 μg PGG/mg dry tissue. Also, in series [4], the “aortas that maintained the same diameter or decreased at 56 days compared with 28 days” value was 100%.

Take `O=C(OC[C@H]1O[C@@H](OC(=O)c2cc(O)c(O)c(OC(=O)c3cc(O)c(O)c(O)c3)c2)[C@H](OC(=O)c2cc(O)c(O)c(OC(=O)c3cc(O)c(O)c(O)c3)c2)[C@@H](OC(=O)c2cc(O)c(O)c(OC(=O)c3cc(O)c(O)c(O)c3)c2)[C@@H]1OC(=O)c1cc(O)c(O)c(OC(=O)c2cc(O)c(O)c(O)c2)c1)c1cc(O)c(O)c(OC(=O)c2cc(O)c(O)c(O)c2)c1` [TA, tannic acid]: the “TA binding kinetics normalized to dry weight of pure elastin strips” value in series [5] is “rapid uptake”. In addition, the “increase in stability towards enzymatic digestion, evaluated by mass loss” value in series [6] (0.3% TA pretreatment, elastase, n=6) is given as “about 50%”. Moreover, the “histology of aortic elastin structure after elastase treatment” value in series [6] (TA-stabilized elastin, elastase for up to 48 hours) is “remarkably preserved”. For the same compound, the “resistance of aorta to elastase (digestion values vs untreated fresh aorta)” value in series [7] is listed as “dramatically increased resistance”.
